In PubChem BioAssay AID1963968 (Molecular Pharmacology Branch, DTP, NCI, 2024):
Several values for one entry are separate records, joined by “and”; a condition that tells them apart may be missing. Identical values can stand only once.

Tested on: 945468-187-T-J3-PDC spheroids with HUVEC/MSC, viability
Assay: Anticancer human tumor 945468-187-T-J3-PDC patient-derived rectal carcinoma cell line growth inhibition [PI3K]
Conditions: for viability, T/C: stronger effect = lower value
Excerpt: Combinatorial screen of targeted agents with the PI3K inhibitors inavolisib, alpelisib, duvelisib, and copanlisib in multi-cell type tumor spheroids
A high-throughput screen of multi-cell type tumor spheroids was designed to identify active combinations of targeted small molecules and PI3K pathway inhibitors. Complex spheroids include a stromal component modeled by human endothelial cells (HUVEC) and fibroblasts modeled by human mesenchymal stem cells (MSCs). The concentration ranges selected for each drug and investigational agent were based upon clinically achievable concentrations if the clinical Cmax of the agent was known.
Compounds. The drugs and investigational agents: inavolisib (NSC800729), alpelisib (NSC765974), duvelisib (NSC772469), copanlisib (NSC816437), ipatasertib (NSC767898), afuresertib (NSC778305), talazoparib (NSC767125), sapanisertib (NSC764658), selumetinib (NSC741078), tovorafenib (DAY101, NSC766906), vemurafenib (NSC761431), ravoxertinib (NSC781343), sotorasib (NSC818433), MRTX1133 (NSC 836407), abemaciclib (NSC 768073), palbociclib (NSC758247), venetoclax (NSC 766270), SY5609 (NSC837396), enzalutamide (NSC755605), and darolutamide (NSC825331), were obtained from the National Cancer Institute (NCI) Developmental Therapeutics Program Chemical Repository. The FDA-approved anticancer drug set is available from the NCI Developmental Therapeutics Program. […] The stock solutions were prepared in dimethyl sulfoxide (DMSO, Sigma-Aldrich, St. Louis, MO, cat. D2650) at 800-fold the tested concentration and stored at -70 degrees C prior to their use. All drugs and investigational agents were tested over a range starting from a high concentration at or near the clinical Cmax and decreasing in half-log increments. If the clinical Cmax for an agent had not been determined, the highest concentration tested was 10 microM.
Cell Culture. All cells were maintained in an incubator at 37 degrees C and 5% CO2 with 95% humidity. The PDC lines were cultured according to standard operating procedures established by the NCI PDMR (https://pdmr.cancer.gov/sops/default.htm). All PDCs were thawed and cultured in Matrigel-coated flasks prepared with a working solution of 1X Ham's F-12 nutrient mix, without supplementation (Invitrogen, Waltham, MA, cat. 11765054), 100 U/mL penicillin-streptomycin (Invitrogen, cat. 15140122), and 2.5% Matrigel (Corning Inc., Corning, NY, cat. 354248) for the first three passages. The 354836-022-R-J1-PDC, 475296-252-R-J1-PDC, and 997726-040-R-J2-PDC lines were cultured in 6A media, which includes advanced DMEM/F-12 (Thermo Fisher Scientific, cat. 12634028), 10 mM HEPES (Thermo Fisher Scientific, cat. 15630080), 1X GlutaMAX supplement (Thermo Fisher Scientific, cat. 35050061), 0.1 mg/mL primocin (InvivoGen, San Diego, CA, cat. ant-pm-2), 10% defined fetal bovine serum, heat inactivated (HyClone Laboratories Inc., Logan, UT, cat. SH30070.03HI), 50% L-WRN conditioned media (ATCC, cat. CRL-3276), 1.25 mM N-Acetyl-L-cysteine (Sigma-Aldrich, cat. A9165), 10 mM nicotinamide (Sigma-Aldrich, cat. N0636), 1X B-27 supplement (Thermo Fisher Scientific, cat. 17504044), 1X N-2 supplement (Thermo Fisher Scientific, cat. 17502048), and 10 microM Y-27632 dihydrochloride (Tocris Bioscience, Bristol, United Kingdom, cat. 1254). The 624824-186-R-J2-PDC line was cultured in 6C/Colon 1B media, which includes all 6A media components plus 50 ng/mL human EGF recombinant protein (Thermo Fisher Scientific, cat. PHG0311). […]
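Also: spheroids exposed to agents for 7 days before viability read.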
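For viability, T/C in this document: 100% = DMSO vehicle control viability.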

SMILES	viability, T/C (compound 0.0316 µM)	viability, T/C (compound 0.1 µM)	viability, T/C (compound 1 µM)	viability, T/C (compound 3.16 µM)	IC50 (curve of compound)	viability, T/C (compound 0.00316 µM)	viability, T/C (compound 0.01 µM)	viability, T/C (compound 0.316 µM)	viability, T/C (compound 10 µM)	other results
CCCS(=O)(=O)Nc1ccc(F)c(C(=O)c2c[nH]c3ncc(-c4ccc(Cl)cc4)cc23)c1F	105% [middle of 4 runs]	97.1% [middle of 4 runs]	102% [middle of 4 runs]	103% [middle of 4 runs]	6.88 µM [middle of 4 runs]					
CCN1CCN(Cc2ccc(Nc3ncc(F)c(-c4cc(F)c5nc(C)n(C(C)C)c5c4)n3)nc2)CC1	97.6% [middle of 4 runs]	107% [middle of 4 runs]	99.2% [middle of 4 runs]		> 1 µM	91.2% [middle of 4 runs]	103% and 85.4% and 90.3% (2×)	110% [middle of 4 runs]		
CNC(=O)c1ccc(N2C(=S)N(c3ccc(C#N)c(C(F)(F)F)c3)C(=O)C2(C)C)cc1F	100% (2×) and 113% and 95%	108% [middle of 4 runs]		113% (2×) and 102% and 121%	> 10 µM			104% [middle of 4 runs]	109% [middle of 4 runs]	
COc1c(OCCCN2CCOCC2)ccc2c3n(c(=NC(=O)c4cnc(N)nc4)nc12)CCN3	95.7% [middle of 8 runs]	39.7% [middle of 8 runs]	16.4% [middle of 8 runs]			96% [middle of 8 runs]	96.8% [middle of 8 runs]	19.6% [middle of 8 runs]		IC50 (compound alone, run of 06/13/2023): 80.4 nM [middle of 8 runs]
C[C@@H](NC(=O)c1ncnc(N)c1Cl)c1ncc(C(=O)Nc2cc(C(F)(F)F)c(Cl)cn2)s1	94.2% [middle of 4 runs]	104% [middle of 4 runs]	105% [middle of 4 runs]	106% [middle of 4 runs]	> 10 µM			101% (2×) and 91.3% and 98.2%	108% [middle of 4 runs]	
Cc1nc(NC(=O)N2CCCC2C(N)=O)sc1-c1ccnc(C(C)(C)C(F)(F)F)c1 (configuration not stated)	90% [middle of 7 runs]	96% [middle of 8 runs]	103% [middle of 8 runs]	106% [middle of 8 runs]				99.1% [middle of 8 runs]	62.1% [middle of 8 runs]	IC50 (compound alone, run of 06/12/2023): > 10 µM
Cn1cnc2c(F)c(Nc3ccc(Br)cc3Cl)c(C(=O)NOCCO)cc21					> 3 µM					viability, T/C (compound 0.00949 µM): 103% [middle of 4 runs]; viability, T/C (compound 0.03 µM): 109% [middle of 4 runs]; viability, T/C (compound 0.0949 µM): 116% [middle of 4 runs]; viability, T/C (compound 0.3 µM): 119% (2×) and 99.5% and 130%; viability, T/C (compound 0.949 µM): 108% [middle of 4 runs]
Cn1ncc(Cl)c1-c1cc(C(=O)NC(CN)Cc2cccc(F)c2)sc1Cl (configuration not stated)	100% (2×) and 98.4% and 89.2%	98.1% [middle of 4 runs]		59.7% [middle of 4 runs]				97.4% [middle of 4 runs]	50.4% [middle of 4 runs]	
Cn1nccc1Nc1nccc(-c2ccn(C(CO)c3ccc(Cl)c(F)c3)c(=O)c2)n1 (configuration not stated)	95.4% [middle of 4 runs]	104% [middle of 4 runs]	111% [middle of 4 runs]	136% (2×) and 113% and 127%	> 10 µM					
Cn1ncnc1[C@H]1c2n[nH]c(=O)c3cc(F)cc(c23)N[C@@H]1c1ccc(F)cc1	98.2% and 92.9% and 117%	110% and 96.3% and 103%			> 0.1 µM	99.4% and 89% and 90.5%	86.2% and 91.3% and 94.7%			viability, T/C (compound 0.000316 µM): 101% and 102% and 91.8%; viability, T/C (compound 0.001 µM): 91.2% and 106% and 101%
